The results in this text go back to US20240174642A1, “HETEROCYCLIC COMPOUNDS CAPABLE OF ACTIVATING STING” (Boehringer Ingelheim International GmbH, priority 2022, published 2024).

One assay deals with STING. Briefly: Dog whole blood (dWB) assay, IFNb secretion by ELISA. In kind it is cell-based. To be noted: 4 h incubation at 37° C., % control relative to cGAMP stimulated control, read-out: EC50, cytokine secretion in dog whole blood (dWB) culture system as determined by canine Interferon-beta (IFNb) ELISA. The method, then: In this assay, freshly collected canine blood is incubated with a STING agonist, and interferon beta levels in the supernatant are quantified by ELISA. […] In accordance with the invention, a combination of a high dDSF and low dWB is especially favorable.
For the detection of STING activation in physiological environment dog whole blood (dWB) was stimulated by the cyclic dinucleotide cGAMP or a test compound. Pathway activity was monitored by measuring the IFNb production.
Compounds were delivered as 10 mM DMSO solution, diluted and transferred by using an Echo acoustic dispenser to the 384well assay plate (Greiner #781182), pre-filled with 10 μl 1× HBSS in each well (10× HBSS (+Ca/+Mg), #14065-049, Gibco). Typically, 8 concentrations were used with the highest concentration at 10 μM in the final assay volume followed by approximately 1:4 dilution steps. DMSO concentration was set to 0.1% in the final assay volume. The 384-well assay plate contained 20 test compounds and DMSO in control and cGAMP standard wells. The dog whole blood was collected as Na-Citrate blood (e.g., 3.8% in Monovettes from Sarstedt) and kept at 4° C. overnight until use in the assay. 80 μl of the whole blood samples were transferred to each well of the 384-well assay plates filled with compound/1×HBSS. Blood plates were kept at room temperature for 60 minutes and continuous shaking with 450 rpm, covered with the lid, but not sealed. A 10× cGAMP assay solution was diluted from a 2 mM stock solution in 1×HBSS immediately before use at room temperature. 10 μl of the 10× cGAMP/HBSS were added to the high control wells, whereas HBSS only was added to all compound and low control wells. After covering assay plates with the lid, blood plates were kept for a 4 h incubation at 37° C. in the incubator, without shaking. For the detection of IFNb in dog plasma the ELISA Kit for Canine Interferon Beta (Biotrend #SEA222Ca) was used. Whole blood assay plates were centrifuged at 1000 g for 10 minutes at 8° C. 40 μl of supernatant was transferred with a 96 well pipetting robotics from the 384 well whole blood plate to the corresponding 96 well ELISA plate, pre-filled with […] assay diluent in each well. Plates were sealed with microplate seals and kept at 4° C. overnight again. ELISA plates were brought to room temperature, followed by a 1 h incubation at 37° C. in the incubator. Detection Reagent A working solution was prepared by diluting Detection Reagent A 1:100 in Assay Reagent A. Liquid was then removed from the 96 well ELISA plate to add 100 μL Detection Reagent A working solution to each well. ELISA plates were covered with the plate sealer and incubated for 1 hour at 37° C. in the incubator. The 1× Wash buffer was prepared by diluting the 30× Wash Buffer Concentrate in H2O. Detection Reagent B working solution was prepared by diluting Detection Reagent B 1:100 in Assay Reagent B. The ELISA plates were washed three times with 350 μl wash buffer and afterwards inverted and blotted against absorbent paper to remove any liquid. 100 μL of Detection Reagent B working solution was added to each well of the ELISA plates, which are then covered with the plate sealer and incubated for 30 minutes at 37° C. in the incubator. After incubation the ELISA assay plates were washed five times with 350 μl wash buffer and were again inverted and blotted against absorbent paper to remove any remaining liquid. 90 μL of TMB Substrate was added to each well of the ELISA plates, which were then covered with the plate sealer and incubated for 15 minutes at 37° C. in the incubator. The reaction was stopped by adding 50 μL stop solution and absorbance was measured at 450 nm immediately.
For data evaluation and calculation, % control calculation of each well was based on the mean of high (cGAMP stimulated control) and mean of low (unstimulated control) controls by using the following standard 4 parameter logistic regression formula: […]

Another assay deals with dog STING (dSTING). Put plainly: Dog differential scanning fluorimetry (DSF) assay, thermal shift of dog STING protein. Format: binding. Particulars: 100 μM compound, 3 μM recombinant dog STING (residues 149 to 375), 5× SYPRO Orange, 2% DMSO. An excerpt: The protein used for the biophysical experiments was a recombinant dog STING protein comprising its cytosolic cGAMP binding ectodomain. A codon optimized DNA sequence (for expression in Escherichia coli) encoding amino acid residues 149 to 375 of dog STING was synthesized by GeneArt (Regensburg, Germany) and inserted into a pET17b E. coli expression vector. The protein construct encodes an N-terminal 8× His-tag followed by tobacco etch virus protease (TEV) cleavage site and the above STING gene sequence. The resulting protein sequence for the used dog STING protein (SEQ ID No. 1) is listed below:
For expression of the above recombinant dog STING, the construct was transformed into E. coli BL21 DE3 strain and grown in shake flasks in LB-medium at 15° C. Expression was induced by addition of isopropyl β-D-1-thiogalactopyranoside to a final concentration of 1 mM and cultures shaken overnight. Cell pellets were centrifuged and stored at −70° C. until further use. Protein was purified by cell thawing in lysis buffer (20 mM TRIS-HCl, pH 8, 500 mM NaCl, 1 mM DTT, 0.5 mg/ml lysozyme, Complete Protease Inhibitor (Roche) and DNase (Roche)), followed by metal affinity purification using Ni-NTA resins and elution buffer consisting of 20 mM TRIS-HCl, pH 8, 500 mM NaCl, 1 mM DTT, 300 mM imidazole. Cleavage of the His-Tag using TEV-protease took place during dialysis in size exclusion buffer (20 mM TRIS-HCl, pH 8, 100 mM NaCl, 1 mM DTT) over night. To further purify the target protein a reverse Nickel affinity column was used and the flow through was applied to a size exclusion chromatography. The peak fraction was collected and concentrated to 5 mg/mL.
Dye fluorescence is quenched in aqueous environment and increases upon association of the dye with the hydrophobic parts of the unfolding protein. […] The inflection point of the curve represents the “melting” temperature of the protein (Tm) which is calculated numerically using the Boltzmann equation.
The thermal stability of the dog STING protein was measured in assay buffer containing 20 mM Tris, 150 mM NaCl at pH7.5. The assay uses 384-Well qPCR Plates (Catalog #781358, BRAND), Microseal®‘B’ Adhesive Seals for PCR Plates (Catalog #MSB-1001, BIO-RAD) and was run on a CFX384 Real-Time System (Bio-Rad). A DMSO stock solution of SYPRO orange (SIGMA 55692-500UL) was prepared. Compound stock solutions (10 mM in DMSO) were diluted 1:2 in DMSO to an intermediate compound concentration of 5 mM and then further diluted 1:40 in assay buffer resulting in a compound concentration of 125 μM and 2.5% DMSO. Fluorescent dye stock solution (5000× SYPRO Orange) was then mixed with target protein and buffer to a concentration of 15 μM Protein and 25× SYPRO Orange. 2 μl of this protein-dye-mixture was added to 8 μl compound solution. Final volume was 10 μL. 3-6 well positions were used as negative control (protein with 2% DMSO). The plates were prepared for duplicate measurement and centrifuged for 2 min at 1000 g. In the measurement, 160 cycles of 0.5° C. were used (temperature ramp 15 s/cycle, 15° C. to 95° C.).
Final Assay concentrations for compound characterization were 100 μM compound, 3 μM target protein, 5× SYPRO Orange, and 2% DMSO in 10 μl. All dispensing steps were performed using a HamiltonStar pipetting robot (Hamilton).
Dissociation curves were processed in Bio-Rad CFX Manager. Peak type was set to “negative”. Compound codes for screen were assigned in the plate layout.
Two replicates of TM measurements were averaged, and the standard deviation was calculated. In cases of SD>1.5° C. the measurement was repeated.
The melting point (Tm) obtained for STING protein alone was subtracted from T obtained for protein incubated with ligand to generate ΔTm values.
For orientation: DSF heats the sample and reads unfolding from a dye or from intrinsic fluorescence.

dog STING (dSTING), sequence (as listed by the source): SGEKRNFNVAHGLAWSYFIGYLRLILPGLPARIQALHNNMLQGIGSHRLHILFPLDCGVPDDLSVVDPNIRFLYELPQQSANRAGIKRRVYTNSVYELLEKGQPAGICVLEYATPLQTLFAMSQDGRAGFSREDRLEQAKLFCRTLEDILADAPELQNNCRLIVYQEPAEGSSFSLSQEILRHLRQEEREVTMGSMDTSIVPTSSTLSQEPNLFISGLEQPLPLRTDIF

As to “(1S,4R,5R)-2-(5-{2″,7-dimethyl-1H,2″H-[3,4″-biindazol]-1-yl}pyridin-2-yl)-2-azabicyclo[2.2.1]heptane-5-carboxylic acid and 1R,4S,5S)-2-(5-{2′,7-dimethyl-1H,2′H-[3,4′-biindazol]-1-yl}pyridin-2-yl)-2-azabicyclo[2.2.1]heptane-5-carboxylic acid [Example 5]”, the EC50 with STING was determined as 529 nM. Further, the “Delta TM, interaction with dog STING as determined by DSF (dDSF)” value in the assay with dog STING (dSTING) amounted to 33.5 °C.

The term EC50 denotes the concentration giving half of the maximal effect.
